Source: paper PMC11596366, “Silybin Derivatives Produced by γ-Irradiation and Their Tyrosinase Inhibitory Activities” (Molecules, 2024)

What was measured:
Mushroom tyrosinase = Mushroom tyrosinase (Agaricus bisporus, UniProt C7FF04); test: Mushroom tyrosinase inhibitory activity (L-tyrosine substrate, OD 475 nm); type: biochemical
Experimental: Mushroom tyrosinase (Sigma-Aldrich Co., St. Louis, MO, USA) was used for in vitro assays with slight modifications from a previously described method. […] After 5 min incubation at room temperature, 0.1 mL L-tyrosine (2 mM) was added and incubated for additional 20 min.

tyrosinase = tested on: tyrosinase; design: method as in PMID 30871862; settings: against both monophenolase and diphenolase; cited from earlier work

Mushroom tyrosinase, sequence (C7FF04 2-392): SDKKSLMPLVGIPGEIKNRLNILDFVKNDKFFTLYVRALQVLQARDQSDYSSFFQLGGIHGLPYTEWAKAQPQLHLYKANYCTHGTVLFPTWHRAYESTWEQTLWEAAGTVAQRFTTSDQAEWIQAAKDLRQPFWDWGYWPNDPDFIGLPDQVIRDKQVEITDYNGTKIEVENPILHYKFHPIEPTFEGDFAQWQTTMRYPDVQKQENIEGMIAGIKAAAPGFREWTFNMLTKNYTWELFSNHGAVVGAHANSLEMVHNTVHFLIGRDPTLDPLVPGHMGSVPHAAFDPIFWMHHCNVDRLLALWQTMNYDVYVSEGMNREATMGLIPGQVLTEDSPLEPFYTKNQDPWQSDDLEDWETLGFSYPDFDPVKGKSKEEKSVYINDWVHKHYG
Mushroom tyrosinase, sequence (G1K3P4 entry or part of it, further chain): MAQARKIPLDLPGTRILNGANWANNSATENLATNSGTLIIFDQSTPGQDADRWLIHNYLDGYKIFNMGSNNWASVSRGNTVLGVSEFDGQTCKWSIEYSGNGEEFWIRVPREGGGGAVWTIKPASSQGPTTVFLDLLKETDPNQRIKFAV

OC[C@H]1O[C@@H](Oc2ccc(O)cc2)[C@H](O)[C@@H](O)[C@@H]1O [Arbutin, reference compound]
inhibition at 2300 µg/mL (Mushroom tyrosinase; concentration 2300 μg/mL, positive control): 50 ± 2.1%

COc1cc(C2Oc3cc([C@H]4Oc5cc(O)cc(O)c5C(=O)[C@@H]4O)ccc3OC2CO)ccc1O (stereo partly drawn) [Compound 0]
IC50 (Mushroom tyrosinase; non-irradiated and irradiated silybin samples, arbutin positive control, L-tyrosine 2 mM, pH 6.5): >200 µg/mL | Inhibition of Tyrosinase (%) (Mushroom tyrosinase; sample concentration 50 μg/mL, L-tyrosine 2 mM, pH 6.5): 5.2 ± 0.2% | Inhibition of Tyrosinase (%) (Mushroom tyrosinase; sample concentration 100 μg/mL, L-tyrosine 2 mM, pH 6.5): 11.4 ± 0.5% | Inhibition of Tyrosinase (%) (Mushroom tyrosinase; sample concentration 200 μg/mL, L-tyrosine 2 mM, pH 6.5): 26.5 ± 0.8%

COc1cc(C2Oc3cc([C@H]4Oc5cc(O)cc(O)c5C(=O)[C@@H]4O)ccc3OC2CO)ccc1O (stereo partly drawn) [silybin (1), silybin]
type of tyrosinase inhibition (tyrosinase): mixed type I (KI < KIS) inhibition
